Our source for the Ki values is BindingDB's records for doi:10.1016/j.ejphar.2004.01.015 (Abbott Laboratories, 2004).

Where “and” joins values, the source holds several entries; their conditions need not be identical. Equal entries are not always repeated.

Among the targets are Histamine H2 receptor (Homo sapiens, UniProt P25021); Histamine H1 receptor (Homo sapiens, UniProt P35367); Hrh3 protein (Rattus norvegicus, UniProt Q5PPG3); Histamine H4 receptor (Homo sapiens, UniProt Q9H3N8); Histamine H3 receptor (Homo sapiens, UniProt Q9Y5N1).

Chain of Histamine H2 receptor (P25021 whole entry): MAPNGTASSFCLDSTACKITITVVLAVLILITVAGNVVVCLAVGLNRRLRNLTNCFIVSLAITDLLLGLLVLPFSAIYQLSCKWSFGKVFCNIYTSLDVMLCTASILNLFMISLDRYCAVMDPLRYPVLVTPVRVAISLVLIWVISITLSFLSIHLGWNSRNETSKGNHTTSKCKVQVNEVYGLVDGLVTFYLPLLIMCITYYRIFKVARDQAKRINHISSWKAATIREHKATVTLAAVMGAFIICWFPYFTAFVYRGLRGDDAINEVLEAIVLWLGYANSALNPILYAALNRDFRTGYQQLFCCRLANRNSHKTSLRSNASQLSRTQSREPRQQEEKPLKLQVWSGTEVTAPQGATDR
Chain of Histamine H1 receptor (P35367 whole entry): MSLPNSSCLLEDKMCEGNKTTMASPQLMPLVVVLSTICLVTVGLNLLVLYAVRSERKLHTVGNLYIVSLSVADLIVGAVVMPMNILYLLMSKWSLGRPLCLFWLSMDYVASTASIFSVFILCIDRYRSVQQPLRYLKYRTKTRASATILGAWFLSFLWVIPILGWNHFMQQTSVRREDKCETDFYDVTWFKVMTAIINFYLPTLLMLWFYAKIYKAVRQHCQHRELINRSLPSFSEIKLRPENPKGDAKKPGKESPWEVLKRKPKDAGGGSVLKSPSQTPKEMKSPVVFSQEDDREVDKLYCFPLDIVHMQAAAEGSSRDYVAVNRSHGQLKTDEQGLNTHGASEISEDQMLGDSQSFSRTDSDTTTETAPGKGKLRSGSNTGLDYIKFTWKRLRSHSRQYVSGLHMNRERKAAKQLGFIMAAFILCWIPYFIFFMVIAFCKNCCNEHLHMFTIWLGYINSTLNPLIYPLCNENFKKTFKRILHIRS
Chain of Hrh3 protein (Q5PPG3 whole entry): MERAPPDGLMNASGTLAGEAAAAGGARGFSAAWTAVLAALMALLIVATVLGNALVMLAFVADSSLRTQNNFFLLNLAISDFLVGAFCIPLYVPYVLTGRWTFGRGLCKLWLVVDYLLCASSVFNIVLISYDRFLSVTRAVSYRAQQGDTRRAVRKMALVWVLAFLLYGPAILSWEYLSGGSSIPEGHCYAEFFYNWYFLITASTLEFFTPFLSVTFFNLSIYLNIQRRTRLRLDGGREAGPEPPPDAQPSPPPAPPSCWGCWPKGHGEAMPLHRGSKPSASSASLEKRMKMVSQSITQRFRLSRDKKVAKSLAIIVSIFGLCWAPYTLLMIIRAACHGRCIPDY
Chain of Histamine H3 receptor (Q9Y5N1 whole entry): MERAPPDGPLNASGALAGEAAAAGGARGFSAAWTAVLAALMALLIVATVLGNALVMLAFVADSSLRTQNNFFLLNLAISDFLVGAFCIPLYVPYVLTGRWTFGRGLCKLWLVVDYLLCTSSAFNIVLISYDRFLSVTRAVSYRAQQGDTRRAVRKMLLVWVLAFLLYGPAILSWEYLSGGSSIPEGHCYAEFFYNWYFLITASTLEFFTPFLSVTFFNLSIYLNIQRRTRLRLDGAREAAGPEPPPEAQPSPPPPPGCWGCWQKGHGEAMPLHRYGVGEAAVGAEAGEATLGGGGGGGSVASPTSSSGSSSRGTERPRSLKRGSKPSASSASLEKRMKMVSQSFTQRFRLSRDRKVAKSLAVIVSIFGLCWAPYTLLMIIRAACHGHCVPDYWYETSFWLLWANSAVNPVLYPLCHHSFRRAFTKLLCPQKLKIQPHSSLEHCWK
Chain of Histamine H4 receptor (Q9H3N8 whole entry): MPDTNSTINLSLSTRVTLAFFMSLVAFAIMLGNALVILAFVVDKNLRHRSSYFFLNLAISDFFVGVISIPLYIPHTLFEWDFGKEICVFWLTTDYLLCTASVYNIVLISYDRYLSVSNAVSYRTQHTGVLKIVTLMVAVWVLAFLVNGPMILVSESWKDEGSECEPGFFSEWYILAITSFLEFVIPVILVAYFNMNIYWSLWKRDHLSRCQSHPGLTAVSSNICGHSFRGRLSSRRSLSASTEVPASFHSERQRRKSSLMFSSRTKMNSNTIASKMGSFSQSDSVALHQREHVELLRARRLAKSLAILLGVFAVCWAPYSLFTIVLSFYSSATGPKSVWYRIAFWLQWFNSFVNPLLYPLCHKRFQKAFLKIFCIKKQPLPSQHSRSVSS

Usually Ki stands for the dissociation constant of the complex between target and ligand, obtained from inhibition or displacement. A low value points to tighter binding. With `S=C(NC1CCCCC1)N1CCC(c2cnc[nH]2)CC1`, the Ki on Histamine H2 receptor was greater than 10 µM; at Histamine H1 receptor, greater than 10 µM; at Hrh3 protein, 0.0075 µM and 0.00321 µM.
Turning to `O=C(c1ccc(OCCCc2cnc[nH]2)cc1)C1CC1`, the Ki is greater than 10 µM on Histamine H2 receptor; greater than 10 µM at Histamine H1 receptor; 0.000654 µM and 0.000427 µM on Hrh3 protein.
`CN(C)[C@@H]1CCN(CCCOc2ccc(-c3ccc(C#N)cc3)cc2)C1` [A-331440]: the Ki on Histamine H4 receptor was greater than 10 µM; on Histamine H2 receptor, greater than 10 µM; at Histamine H3 receptor, 0.0227 µM and 0.00324 µM; at Hrh3 protein, 0.0217 µM and 0.00628 µM.
In the case of `O=C(CCCCC1CCCCC1)N1CCC(c2c[nH]cn2)CC1`, the Ki at Histamine H4 receptor was 0.734 µM; at Histamine H2 receptor it was 7.2 µM; on Histamine H3 receptor, 0.499 µM and 0.136 µM; on Histamine H1 receptor, 2.56 µM; at Hrh3 protein it was 0.0258 µM.
`NCCc1c[nH]cn1` [[3H]histamine]: the Ki on Hrh3 protein was 0.0049 µM and 0.00266 µM.
